Where “and” joins values, the source holds several entries; their conditions need not be identical. Equal entries are not always repeated. Where two headings read alike, the source gives them in different places.
Experiments:
GlyR = test system: GlyR; design: method as in Breitinger et al., 2016; conditions: ref Breitinger et al., 2016, cited from earlier work; for on-rate of current enhancement: saturating concentrations; for EC50: read-out: EC50 for augmentation of glycine-mediated responses
[1] = molecular target: T1, recombinant α3L GlyRs expressed in HEK293 cells (Homo sapiens, UniProt O75311); assay: Whole-cell patch-clamp recordings of GlyR-transfected HEK293 cells; assay type: cell-based; conditions: for EC50 / IC50: n = 7 cells; for EC50: mean ± SEM, read-out: EC50 of glycine-induced currents; for IC50: IC50 of strychnine inhibition; for IC50 / Ki: 60 μM glycine; for Ki: Ki of strychnine (Cheng-Prusoff)
T1 construct: expressed in transfected cells; host or cells: HEK293
Method: Current responses from GlyR-transfected HEK293 cells were measured at room temperature (21–23°C) at a holding potential of −50 mV using a HEKA EPC10 amplifier (HEKA Electronics, Lambrecht, Germany) controlled by Pulse software (HEKA Electronics). Recording pipettes were pulled from borosilicate glass (World Precision Instruments, Berlin, Germany) using a Sutter P-97 horizontal puller (Sutter, Novato, CA, USA). Solutions were applied using an Octaflow system (NPI electronics, Tamm, Germany). The external buffer consisted of 135 mM NaCl, 5.5 mM KCl, 2 mM CaCl2, 1.0 mM MgCl2, and 10 mM Hepes (pH adjusted to 7.4 with NaOH); the internal buffer was 140 mM CsCl, 1.0 mM CaCl2, 2.0 mM MgCl2, 5.0 mM EGTA, and 10 mM Hepes (pH adjusted to 7.2 with CsOH). […] Dose-response data were fitted to the Hill equation (see Supplementary Material) to determine EC50 and IC50.
Ki was calculated using the Cheng-Prusoff correction, significance was tested using one-way ANOVA with p < 0.05 considered significant. […] All data are means ± SEM; significance levels (relative to control) are indicated: *p ≤ 0.5; **p ≤ 0.01; ns, not significant.
Cell Culture and Transfection – HEK293 cells were grown in 10 cm tissue culture Petri dishes in Eagle minimal essential medium (EMEM) (Lonza, Basel, Switzerland) supplemented with 10% FBS (Invitrogen, Karlsruhe, Germany) and penicillin/streptomycin (Sigma-Aldrich, Munich, Germany) at 5% CO2 and 37 °C in a water saturated atmosphere. For electrophysiological experiments, cells were plated on acetone treated glass coverslips in 24 well plates. Transfection was performed 1 day after cell passage using polyethyleneimine (PEI) (Sigma-Aldrich, Munich, Germany): 0.75 µg of receptor DNA and 1.0 µg of green fluorescent protein DNA were mixed in 50 µl EMEM; in a second Eppendorf tube, 3.5 µl PEI was added to 50 µl EMEM, mixed and combined with the DNA solution. After 20 min incubation at room temperature, the transfection solution was added dropwise to the cells. Measurements were performed 1-3 days after transfection.
Electrophysiological Recordings and Data Analysis – Current responses from GlyR-transfected HEK293 cells were measured at room temperature (21-23°C) at a holding potential of -50 mV. Whole-cell recordings were performed using a HEKA EPC10 amplifier (HEKA Electronics, Lambrecht, Germany) controlled by Pulse software (HEKA Electronics). Recording pipettes were pulled from borosilicate glass (World Precision Instruments, Berlin, Germany) using a Sutter P-97 horizontal puller (Sutter, Novato, CA).

mice = conditions: cited from earlier work; for LD50: mice, Patocka, 2009
Male Swiss Webster mice [2] = assay: Tactile sensitivity (von Frey) test, paw withdrawal threshold; assay type: in vivo; conditions: for PWT ratio: individual mice and avg
Method: (§1) See Supplementary Material S1 for experimental details. On the day of the experiment, mice were weighed and then fasted for 5–6 h to reduce variability in initial blood glucose levels (BGL). Mice had been accustomed to the test apparatus for 2–3 h on two separate days before experiments. Two hours before testing, mice were acclimatized to the measuring apparatus. For hotplate tests, mice were accustomed to the testing condition by placing them one by one on a switched off hotplate at room temperature for the set cut off time of 30 s. One hour before testing, baseline measurements for touch sensitivity were recorded. For both experiments, mice were then injected according to protocol. Blood glucose level was measured before and after injections (Figure 3A).
Mice were divided into four experimental groups (see main text). The investigator performing the measurements was blinded to treatment groups and to the blood glucose readings. All mice were measured for their Paw withdrawal threshold (PWT) using von Frey filaments on at least one occasion before the testing day to reduce the stress or surprise from the experiment. We used the up-and-down method to determine pain withdrawal thresholds (PWT; Bradman et al., [2015]) with 8 mN as the starting value (see Supplementary Material for details). Baseline PWT values for each mouse were determined before treatment. […] Measurements were limited to the time window of 5 min after the second injection (strychnine or vehicle) due to the fast elimination kinetics of low doses of strychnine.
• (i) Baseline PWT determination for each mouse, 30 min prior to the experiment; • (ii) at time t = 0, mice were injected with glucose (2 g/kg) or vehicle • (iii) at t = 30 min, mice were injected with strychnine (0.2 or 0.5 mg/kg) or vehicle; • (iv) at t = 35 min pain-related behavior was assessed.
Von Frey Experiment – The investigator performing the measurements was blinded to treatment groups and to the blood glucose readings. All mice were measured for their paw withdrawal threshold using the Von Frey filaments on at least one occasion before the testing day. That was done to reduce the stress or surprise that might result from exposure to new conditions on the day of the experiment. A baseline reading for each mouse is also taken before the test with the consideration to leave at least one-day gab between baseline and experiment measurement to minimize any effect of repetitive measurement. […]
We used the up-and-down method to determine pain withdrawal thresholds (PWT) (Bradman et al., 2015). To assess the starting force, baseline 50% PWT was measured in five naïve mice (20-35 g) by application of von Frey hairs in an ascending order of their applied force. […] Baseline PWT values for each mouse were determined before treatment. […]

Male Swiss Webster mice [3] = assay: Hotplate test (55°C), latency until pain-related reaction; assay type: in vivo
Method: as §1
The investigator performing the measurements was blinded to treatment groups and to the blood glucose readings.

[4] = test system: recombinant α1, α1-β, and α3 GlyRs; design: method as in Breitinger et al., 2015; Breitinger and Breitinger, 2016; conditions: HEK293 cells, ref Breitinger et al., 2015, 2016; cited from earlier work

T1 sequence (O75311 34-464): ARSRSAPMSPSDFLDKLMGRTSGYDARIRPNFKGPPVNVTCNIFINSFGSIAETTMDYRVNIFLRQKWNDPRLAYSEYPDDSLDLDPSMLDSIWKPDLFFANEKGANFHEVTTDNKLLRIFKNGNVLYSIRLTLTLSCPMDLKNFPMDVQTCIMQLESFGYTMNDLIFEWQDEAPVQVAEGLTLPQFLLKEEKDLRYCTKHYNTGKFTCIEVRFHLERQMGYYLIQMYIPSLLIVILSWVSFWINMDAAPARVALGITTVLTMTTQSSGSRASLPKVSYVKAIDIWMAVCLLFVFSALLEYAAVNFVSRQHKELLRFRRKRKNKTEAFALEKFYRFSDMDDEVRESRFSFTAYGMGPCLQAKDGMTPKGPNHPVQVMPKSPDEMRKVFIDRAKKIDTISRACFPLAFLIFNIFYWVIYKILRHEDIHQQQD

Q: Which “on-rate of current enhancement” value (GlyR) does the source give for `OC[C@H]1O[C@@H](O[C@H]2[C@H](O)[C@@H](O)C(O)O[C@@H]2CO)[C@H](O)[C@@H](O)[C@H]1O` (mixture of isomers) [Lactose, lactose] here?
A: ~ 1.5 h

Q: Which “on-rate of current enhancement” value (GlyR) does the source give for `OC[C@H]1O[C@@](CO)(O[C@H]2O[C@H](CO)[C@@H](O)[C@H](O)[C@H]2O)[C@@H](O)[C@@H]1O` [Sucrose, sucrose] here?
A: ~ 1.5 h

Q: What does the source list for `NCC(=O)O` [Glycine, glycine]?
A: EC50 ([1]; after overnight preincubation with 50 mM glucose): 49.9 ± 5.3 µM; EC50 ([1]; control, no glucose preincubation (5.5 mM glucose in medium)): 106 ± 16 µM

Q: What does the source list for `O=C1C[C@@H]2OCC=C3CN4CC[C@]56c7ccccc7N1[C@H]5[C@H]2[C@H]3C[C@H]46` [Strychnine, strychnine]?
A: lethality (mice; 2 mg/kg IP, Swiss Webster mice, ref Maher et al., 2014): 85%; LD50 (mice; intraperitoneal (IP) injection, ref Prasad et al., 1981): 0.98 mg/kg; LD50 (mice; oral administration, ref Setnikar et al., 1960): 2 mg/kg; PWT ratio (Male Swiss Webster mice [2]; no glucose – Strychnine 0.2 mg/kg): 0.98 and 0.73 and 0.48 and 0.62 and 0.87 and 0.24 and 0.76 and 0.15; PWT ratio (Male Swiss Webster mice [2]; no glucose – Strychnine 0.5 mg/kg): 0.17 and 1.46 and 0.19 and 0.30 and 0.14; time after which notable effects on pain sensitivity were gone (Male Swiss Webster mice [2]; sub-lethal amounts of strychnine, IP): > 5 min; IC50 ([1]; absence of glucose): 0.0307 ± 0.0028 µM; IC50 ([1]; cells preincubated with 50 mM glucose): 0.0462 ± 0.0058 µM; Ki ([1]; cells pretreated with 50 mM glucose): 0.0198 ± 0.0016 µM; Ki ([1]; control cells): 0.0188 ± 0.0014 µM; normalized time to response (Male Swiss Webster mice [3]; strychnine 0.2 mg/kg IP, no glucose): 0.63 ± 0.10; normalized response time (Male Swiss Webster mice [3]; strychnine 0.5 mg/kg IP, no glucose): 0.30 ± 0.07

Q: What does the source list for `O=C(CO)[C@@H](O)[C@H](O)[C@H](O)CO` [Fructose, fructose]?
A: EC50 (GlyR): 6000 to 7000 µM; on-rate of current enhancement (GlyR): < 0.5 h

Q: For `OC[C@H]1OC(O)[C@H](O)[C@@H](O)[C@@H]1O` (stereo partly shown) [Glucose, glucose], which “time after which effects on pain-related behavior were fully developed” value (Male Swiss Webster mice [2]; glucose 2 g/kg IP) is on record?
A: 20 min

Q: And the EC50 (GlyR)?
A: 6000 to 7000 µM

Q: And the “on-rate of current enhancement” value (GlyR)?
A: < 0.5 h

Q: What about the “average normalized latency time” value (Male Swiss Webster mice [3]; glucose 2 g/kg IP, no strychnine, normalized to baseline, mean ± SEM) of the same compound?
A: 1.79 ± 0.18

Q: What about the normalized response time (Male Swiss Webster mice [3]; glucose 2 g/kg pretreatment followed by 0.2 mg/kg strychnine) of the same compound?
A: 1.72 ± 0.44

Q: And the normalized response time (Male Swiss Webster mice [3]; glucose 2 g/kg prior to 0.5 mg/kg strychnine challenge)?
A: 0.74 ± 0.15

Q: And the “reduction of EC50 value” [4]?
A: 2–4 fold
